# Entries after “also recorded” stand apart in the source; their conditions may differ. Where a SMILES comes first, the peptide text is derived from it. [ ]: non-standard residue; d: D form. Ahx = NCCCCCC(=O)O
# Legend:
# [1] = target: T1, neuropeptide Y2R (endogenous in SH-SY5Y cells) (Homo sapiens, UniProt P49146); assay: Ca^2+-flux assay, SH-SY5Y cells transfected with chimeric Gqi; type: cell-based
# T1 construct: SH-SY5Y cells that endogenously expressing Y2R; endogenous in cells; host or cells: SH-SY5Y (transiently transfected with chimeric Gqi protein only)
# T1 sequence (P49146 1-381): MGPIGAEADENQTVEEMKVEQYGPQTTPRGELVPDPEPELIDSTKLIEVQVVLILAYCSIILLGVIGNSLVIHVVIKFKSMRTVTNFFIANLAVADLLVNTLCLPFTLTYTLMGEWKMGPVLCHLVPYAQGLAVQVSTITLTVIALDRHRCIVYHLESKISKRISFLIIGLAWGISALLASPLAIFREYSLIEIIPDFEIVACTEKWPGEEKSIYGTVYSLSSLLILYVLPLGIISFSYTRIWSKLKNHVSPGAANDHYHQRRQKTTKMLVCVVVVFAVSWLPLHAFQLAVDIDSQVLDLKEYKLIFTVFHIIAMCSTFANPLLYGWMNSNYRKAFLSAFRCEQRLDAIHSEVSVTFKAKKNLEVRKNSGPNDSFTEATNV
# Experimental: (§2) HEK293 cells were grown in 25 cm^2 culture flask up to 70–80% confluence in a humidified atmosphere at 37 °C and 5% CO2. Co-transfection of 800 ng plasmid encoding the GαΔ6qi4myr protein and 3200 ng plasmid encoding for the Y2R fused C-terminally to eYFP was performed by using Metafectene® Pro (Biontex Laboratories GmbH) according to manufacturer’s protocol. One-day post transfection, cells were re-seeded (100.000 cells/well) into a black poly-D-lysine covert 96-well plates (Greiner Bio-one) and incubated overnight at 37 °C. Two-days post transfection Ca^2+ experiments were performed with the help of the FLIPR® Calcium Assay Kit (Molecular Devices). […] For recycling, cells were incubated for 60 min with assay buffer (20 mM HEPES, 2.5 mM Probenecid in HBSS, pH 7.5) supplemented with 100 μg/ml CHX (Merck/Calbiochem®) and 1 μM Fluor-2-AM staining dye. […] For the GαΔ6qi4myr overexpression experiments, the transfection ratio between receptor DNA and G protein DNA was varied from the initial concentration 4:1, using a total DNA amount of 4000 ng. By keeping the G protein amount equal to 800 ng, the resulting discrepancy was filled with pcDNA3.
# hY2R = target: T2, hY2R (Homo sapiens, UniProt P49146); assay: cAMP assay, HEK293 co-transfected hY2R/hY1R, Y2R addressed; type: cell-based
# T2 construct: expressed in transfected cells; host or cells: HEK293 (transient transfection, pEYFP-N1 vector)
# T2 sequence (P49146 1-381): T1 sequence (P49146 1-381)
# Experimental: (§1) HEK293 cells were grown in 25 cm^2 culture flask up to 70–80% confluence in a humidified atmosphere at 37 °C and 5% CO2. Co-transfection of 3000 ng pGL4.29[luc2P/CRE/Hygro] (Promega) plasmid and 3000 ng plasmid encoding for the respective receptor was performed using Metafectene® Pro (Biontex Laboratories GmbH) according to the manufacturer’s protocol. One-day post-transfection cells were seeded into white poly-D-lysine covert 96-well plates (Greiner Bio-one) and incubated overnight at 37 °C. For pertussis toxin experiments, medium was supplied with certain concentration (100 ng/ml, 250 ng/ml, 500 ng/ml) of pertussis toxin (Sigma). Two-day post-transfection cAMP experiments were performed with the help of ONE-Glo substrate (Promega), allowing luminescence measurement with the Tecan Infinite M200. […] For recycling, cells were incubated for 60 min with DMEM supplemented with 100 μg/ml CHX (Merck/Calbiochem®). […] As a positive control only 5 μM forskolin were added to the wells. After incubation, medium was exchanged by 30 μl fresh DMEM (RT). 30 μl ONE-Glo substrate was added and after 5 min of incubation the cAMP level was measured by detecting the luminescence. For co-transfection experiments the transfection of two receptors simultaneously and pGL4.29[luc2P/CRE/Hygro] plasmid were performed in a ratio 1:1:1, keeping the total amount of 6000 ng. […] The second stimulation was performed in a peptide concentration range, addressing the respective receptor that was missed in the first round.
# [2] = target: T3, human neuropeptide Y2 receptor (hY2R) (Homo sapiens, UniProt P49146); assay: cAMP reporter gene assay, HEK293-hY2R; type: cell-based; parameters: expressed in transfected cells; host or cells: HEK293 (transient transfection, pEYFP-N1 vector)
# T3 sequence (P49146 1-381): T1 sequence (P49146 1-381)
# Experimental: as §1
# [3] = target: T3, human neuropeptide Y2 receptor (hY2R); assay: TAMRA-NPY uptake in second stimulation, live cell microscopy (HEK293-HA-Y2R-eYFP); type: cell-based; parameters: expressed in transfected cells; host or cells: HEK293 (transient transfection, pEYFP-N1 vector); conditions: n ≥ 3
# Experimental: HEK293 or HEK293-HA-Y2R-eYFP were re-seeded (150.00/well) into sterile poly-D-lysine covered μ-slide 8 wells (Ibidi) and grown in a humidified atmosphere at 37 °C and 5% CO2. For transfection, cells were cultured up to 70–80% confluency and subsequently transfected with 1.0 μg total DNA using Lipofectamine® 2000 transfection reagent (Invitrogen) according to the manufacturer’s protocol. For single transfection in empty HEK293 cells 1.0 μg of HA-Y2R-eYFP-N1 plasmid DNA was used. At the experimental day cells were starved in Opti-MEM® reduced serum medium (Gibco®) containing Hoechst33342 (Sigma) for 30 min at 37 °C. LysoTracker®Blue with a final concentration of 1 μM was used for visualization of the lysosomes. […] For recycling studies, cells were washed twice with acidic wash buffer (50 mM glycine, 100 mM NaCl, pH 3.0) and neutralized once with Hank’s balanced salt solution (HBSS; PAA), followed by a recovery period for 60 min in ligand-free media supplemented with 100 μg/ml cycloheximide (CHX; Merck/Calbiochem®) and with or without 20 mM NH4Cl as an expression inhibitor and recycling inhibitor respectively. […] All microscopy images were obtained using the AxioObserver.Z1 microscope equipped with an ApoTome imaging system (Zeiss, Jena). Within one experimental setup, all images were taken using a fixed exposure time for the single fluorescence channels.
# Microscopy pictures were processed with the standard software Axio vision 4.8 and exported as an 8 Bit TIFF file (Tagged Image File Format). The open access software Image J was applied for the analysis of the pictures. For determination of mean cell surface fluorescence (MCSF) ten nonadjacent cells per image were measured using the segmented line function. Calculation of the relative TAMRA fluorescence, the Raw Intensity Density was measured under distinct conditions. The particular background fluorescence of each image was subtracted after every evaluation. Since this program uses the single gray levels for evaluation, the calculated values were evaluated retroactively as relative fluorescence intensity and analyzed with the statistical program GraphPad Prism.
# [4] = system: HEK293-HA-hY2R-eYFP cells; assay: Intracellular fate of TAMRA-NPY (live cell microscopy, lysosomal stain, EEA1 immunostaining); type: cell-based, human
# Experimental: HEK293-HA-hY2R-eYFP cells were seeded on poly-D-lysine coated coverslips (500.000 /well). […] Gradually preparation of all samples was performed in 10 min intervals of 2% paraformaldehyde (PFA)/PBS on ice, 2% PFA/PBS at RT and finally 4% PFA/PBS at RT. Samples were blocked and permeabilized with 10% BSA/0.1% TritonX-100/PBS for 1 h at RT. Incubation with anti-EEA1 (Santa Cruz, sc-33,585) (1:100) in 1% BSA/0.01% TritonX-100/PBS occurred overnight at 4 °C. The next day, samples were treated with anti-rabbit-AF350 (InvitrogenTM) (1:400) in 1% BSA/0.01% TritonX- 100/PBS for 2 h at RT and mounted with Fluoromount-G®.
# adenylyl cyclase = assay: Impact of Ca^2+ and PKC on cellular cAMP level, HEK293-hY2R-eYFP; type: cell-based; conditions: 10 µM PKC inhibitor 30 min prior to stimulation with peptide; n≥2
# [5] = target: T3, human neuropeptide Y2 receptor (hY2R); parameters: expressed in transfected cells; host or cells: HEK293 (transient transfection, pEYFP-N1 vector); conditions: ref [29]; cited from earlier work
# Source text: Contrary to the obviously low arrestin binding affinity, the unoccupied receptor apparently exists in a conformation that strongly favors G protein coupling. Kaiser et al. recently reported two different affinity states concerning Y2R binding properties. […].
# hY4R = assay: Ca^2+-flux assay, HEK293 co-transfected hY2R/hY4R, PP to address Y4R; type: cell-based, human; conditions: 1 μM NPY first, acidic wash, 60 min recovery; Fig. S3B; n≥2
# Experimental: as §2
# HEK293-hY2R cells = assay: Cell toxicity by microscopy (cell morphology); type: cell-based, human; conditions: PTX 250 ng/ml
# [6] = system: melanocortin 1 receptor (MCR1); assay: cAMP assay, HEK293 co-transfected hY2R/melanocortin 1 receptor; type: cell-based; conditions: PTX present; first stimulation 1 μM NPY
# Experimental: HEK293 cells were grown in 25 cm^2 culture flask up to 70–80% confluence in a humidified atmosphere at 37 °C and 5% CO2. Co-transfection of 3000 ng pGL4.29[luc2P/CRE/Hygro] (Promega) plasmid and 3000 ng plasmid encoding for the respective receptor was performed using Metafectene® Pro (Biontex Laboratories GmbH) according to the manufacturer’s protocol. One-day post-transfection cells were seeded into white poly-D-lysine covert 96-well plates (Greiner Bio-one) and incubated overnight at 37 °C. For pertussis toxin experiments, medium was supplied with certain concentration (100 ng/ml, 250 ng/ml, 500 ng/ml) of pertussis toxin (Sigma). Two-day post-transfection cAMP experiments were performed with the help of ONE-Glo substrate (Promega), allowing luminescence measurement with the Tecan Infinite M200. […] For recycling, cells were incubated for 60 min with DMEM supplemented with 100 μg/ml CHX (Merck/Calbiochem®). […] As a positive control only 5 μM forskolin were added to the wells. After incubation, medium was exchanged by 30 μl fresh DMEM (RT). 30 μl ONE-Glo substrate was added and after 5 min of incubation the cAMP level was measured by detecting the luminescence. For co-transfection experiments the transfection of two receptors simultaneously and pGL4.29[luc2P/CRE/Hygro] plasmid were performed in a ratio 1:1:1, keeping the total amount of 6000 ng. […]
molecule,measurement,setting,value
CC[C@H](C)[C@H](NC(=O)[C@H](Cc1ccc(O)cc1)NC(=O)[C@H](Cc1cnc[nH]1)NC(=O)[C@H](CCCNC(=N)N)NC(=O)CCCCCNC(=O)[C@H](CCCCN)NC(=O)[C@H](CO)NC(=O)[C@@H]1CCCN1C(=O)[C@@H](N)Cc1ccc(O)cc1)C(=O)N[C@@H](CC(N)=O)C(=O)N[C@@H](CC(C)C)C(=O)N[C@H](C(=O)N[C@H](C(=O)N[C@@H](CCCNC(=N)N)C(=O)N[C@@H](CCC(N)=O)C(=O)N[C@@H](CCCNC(=N)N)C(=O)N[C@@H](Cc1ccc(O)cc1)C(N)=O)[C@@H](C)O)[C@@H](C)CC [Ahx^5–24-NPY] (H-YPSK[Ahx]RHYINLITRQRY-NH2),EC50,"[1]; no first stimulation, SH-SY5Y + Gqi, n ≥ 3",0.0419 µM
same,EC50,"hY2R; Y1R/Y2R co-transfected HEK293, no first stimulation",0.014 µM
same,EC50,"hY2R; second stimulation after 1 μM F^7,P^34-NPY and 60 min recovery",0.028 µM
C=C[C@@]1(C)CC(=O)[C@]2(O)[C@@]3(C)[C@@H](O)CCC(C)(C)[C@@H]3[C@H](O)[C@H](OC(C)=O)[C@@]2(C)O1 [forskolin],increase of baseline intracellular cAMP by forskolin,"[2]; 5 μM forskolin, Y2R-expressing HEK293, without NPY",~ 10 fold
"TAMRA-NPY: fluorescent NPY derivative, 5-carboxytetramethylrhodamine (TAMRA)-NPY","TAMRA-NPY internalization in second stimulation, comparison 0 RE vs 60 RE ± NH4Cl","[3]; 1 μM NPY first, then 100 nM TAMRA-NPY 60 min",no difference in TAMRA internalization
same,"TAMRA-NPY uptake, 0 RE","[3]; 1 μM NPY, acidic wash, direct second stimulation 100 nM TAMRA-NPY 60 min, 37 °C, control = 100%",45 ± 5%
same,"TAMRA-NPY uptake, 60 RE","[3]; 1 μM NPY, wash, 60 min recovery with CHX, then 100 nM TAMRA-NPY 60 min, control = 100%",49 ± 4%
same,"TAMRA-NPY uptake, 60 RE + NH4Cl","[3]; as 60 RE with 20 mM NH4Cl during recovery, control = 100%",48 ± 46%
same,localisation after 60 min recycling period,"[4]; 100 nM TAMRA-NPY, lysosomal marker LysoTracker Blue",degradation in lysosomes; also recorded: co-localized with the lysosomal marker
same,localisation in early endosomes,[4]; EEA1 immunostaining,intracellular accumulation of TAMRA-NPY in early and sorting endosomes
same,co-internalization with receptor,"[4]; TAMRA-NPY 60 min, 37 °C",Co-internalization of the ligand-receptor-complex was observed
CN(C)CCCn1cc(C2=C(c3c[nH]c4ccccc34)C(=O)NC2=O)c2ccccc21 [Bisindolylmaleimide I],effect of PKC inhibitor on adenylyl cyclase inhibition,adenylyl cyclase,abolished inhibitory effect of adenylyl cyclases and Y2R downstream signaling
"Nc1nc2c(ncn2[C@@H]2O[C@H](COP(=O)(O)OP(=O)(O)OP(O)(O)=S)[C@@H](O)[C@H]2O)c(=O)[nH]1 [GTPγS, Guanosine 5′-O-[gamma-thio] triphosphate]",effect of GTPγS on total binding,[5],loss in total binding
CC[C@H](C)[C@H](NC(=O)[C@H](Cc1ccc(O)cc1)NC(=O)[C@H](Cc1c[nH]cn1)NC(=O)[C@H](CCCNC(=N)N)NC(=O)CCCCCNC(=O)[C@H](CCCCN)NC(=O)[C@H](CO)NC(=O)[C@@H]1CCCN1C(=O)[C@@H](N)Cc1ccc(O)cc1)C(=O)N[C@@H](CC(N)=O)C(=O)N[C@@H](CC(C)C)C(=O)N[C@H](C(=O)N[C@H](C(=O)N[C@@H](CCCNC(=N)N)C(=O)N[C@@H](CCC(N)=O)C(=O)N[C@@H](CCCNC(=N)N)C(=O)N[C@@H](Cc1ccc(O)cc1)C(N)=O)[C@@H](C)O)[C@@H](C)CC [Ahx^5–24-NPY] (H-YPSK[Ahx]RHYINLITRQRY-NH2),Emax,"hY2R; HEK293, second stimulation after 1 μM F^7,P^34-NPY and 60 min recovery, Ahx^5–24-NPY control curve = 100%",74%
pancreatic polypeptide [PP],Ca^2+ activity in SH-SY5Y,"[1]; SH-SY5Y, endogenous background, n≥3",no activity
same,Ca^2+ response of PP after first stimulation with NPY,hY4R,"obvious loss in activity, since no Ca^2+response was measured"
pertussis toxin [PTX],cell toxicity (cell morphology),HEK293-hY2R cells,no differences in cell morphology were observed
same,effect on maximal forskolin-induced cAMP response after NPY,"[2]; PTX 250 ng/ml, treatment of cells with NPY first",AC-activity is rescued; also recorded: clearly rescued the maximal cAMP response; also recorded: adenylyl cyclase was still activatable by forskolin
same,effect of varying PTX concentrations on AC-activity,"[2]; PTX 100, 250, 500 ng/ml, compared to control curve (Fig. 3f)",caused inhibition of AC-activity compared to control curve
same,effect on inhibitory effect of Y2R (MCR1/Y2R cells),[6],completely abolished; also recorded: abolishing the slight inhibitory effect

# Source: publication PMC7104545, “Unusually persistent Gαi-signaling of the neuropeptide Y2 receptor depletes cellular Gi/o pools and leads to a Gi-refractory state” (Cell Communication and Signaling : CCS, 2020)
